Experimental data reported in ChEMBL document CHEMBL4364298.
Calls of active or inactive are those of the source. The rule behind the calls is not given here.

Molecular target: Histamine H1 receptor (Homo sapiens) (UniProt P35367)
Assay: Antagonist activity at H1R in human HeLa cells assessed as inhibition of histamine-induced intracellular calcium mobilization at 10 times Ki incubated for 18 to 20 hrs prior to Fluo-4NW dye addition for 1 hr followed by compound washout and subsequent stimulation with histamine at 5 mins interval and measured up to 2 hrs by fluorescence assay
Assay type: functional, cell-based

Histamine H1 receptor (Homo sapiens), sequence (P35367 whole entry): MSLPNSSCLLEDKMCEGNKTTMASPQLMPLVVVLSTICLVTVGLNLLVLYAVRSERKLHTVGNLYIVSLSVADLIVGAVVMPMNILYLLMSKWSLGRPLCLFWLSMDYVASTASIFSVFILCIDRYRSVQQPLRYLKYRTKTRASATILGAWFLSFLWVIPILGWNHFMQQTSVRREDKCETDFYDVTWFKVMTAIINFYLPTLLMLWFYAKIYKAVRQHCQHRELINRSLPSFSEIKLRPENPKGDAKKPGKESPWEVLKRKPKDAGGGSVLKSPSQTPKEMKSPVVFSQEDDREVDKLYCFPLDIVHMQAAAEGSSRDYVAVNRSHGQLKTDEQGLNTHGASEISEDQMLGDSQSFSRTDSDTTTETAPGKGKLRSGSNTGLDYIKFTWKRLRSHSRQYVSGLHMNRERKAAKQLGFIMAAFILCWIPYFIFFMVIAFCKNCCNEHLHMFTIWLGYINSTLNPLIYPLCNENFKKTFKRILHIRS

SMILES	inhibition
Clc1ccc2c(c1)CCc1cccnc1C2=C1CCN(CC2CCC2)CC1	100%
Clc1ccc2c(c1)CCc1cccnc1C2=C1CCN(CC2CC2)CC1	100%
Clc1ccc2c(c1)CCc1cccnc1C2=C1CCN(CC2CCCC2)CC1	100%
Cc1cncc(CN2CCC(=C3c4ccc(Cl)cc4CCc4cccnc43)CC2)c1	Active
